# Source: patent US7494714B2, “Surfaces that resist the adsorption of biological species” (President & Fellows of Harvard College, priority 2000, dated 2009)
# Read-outs that look alike come from different tables or passages of the source.
# Key:
# fibrinogen = molecular target: T1, fibrinogen (Bos taurus, UniProt P02672+P02676+P12799); test: SPR adsorption of fibrinogen to SAMs / grafted polymer films; assay type: binding, bovine; details: for % Fiboff (percent decrease in adsorbed protein during 10 minute PBS wash) / dR/dton fibrinogen (maximum initial rate of adsorption) / % MLfib 3 min / % MLfib 30 min: mixed SAM —CONRR′/—CO2H; for % MLfib 3 min: 1 mg/mL fibrinogen flowed 3 min, relative to —CONH(CH2)10CH3/—CO2H SAM; for % MLfib 30 min: 1 mg/mL fibrinogen flowed 30 min; for % ML 30 min / dR/dt on / % ML 3 min: fibrinogen; for % ML 30 min / dR/dt on / % Fib off: single-component SAMs (a) and mixed SAMs (b); for % ML 3 min: single-component SAMs (a, RSH) and mixed SAMs (b, RNH2)
# T1 sequence (P02672 20-615): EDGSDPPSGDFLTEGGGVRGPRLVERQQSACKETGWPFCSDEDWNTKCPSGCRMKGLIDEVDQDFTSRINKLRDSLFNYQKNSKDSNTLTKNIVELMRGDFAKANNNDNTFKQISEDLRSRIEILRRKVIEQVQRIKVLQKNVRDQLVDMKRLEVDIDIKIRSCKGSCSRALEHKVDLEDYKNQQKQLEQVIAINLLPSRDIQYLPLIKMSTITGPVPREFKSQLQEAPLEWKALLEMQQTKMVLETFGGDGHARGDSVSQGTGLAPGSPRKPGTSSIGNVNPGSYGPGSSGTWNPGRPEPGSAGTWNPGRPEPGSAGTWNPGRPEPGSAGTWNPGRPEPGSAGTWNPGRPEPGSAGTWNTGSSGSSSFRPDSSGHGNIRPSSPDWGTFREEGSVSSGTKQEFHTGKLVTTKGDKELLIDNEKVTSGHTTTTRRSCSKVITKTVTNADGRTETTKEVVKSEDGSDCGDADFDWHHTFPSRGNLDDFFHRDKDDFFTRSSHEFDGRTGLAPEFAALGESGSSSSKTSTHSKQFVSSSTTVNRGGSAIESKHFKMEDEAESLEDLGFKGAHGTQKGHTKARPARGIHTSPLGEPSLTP
# T1 sequence (P02676 1-468): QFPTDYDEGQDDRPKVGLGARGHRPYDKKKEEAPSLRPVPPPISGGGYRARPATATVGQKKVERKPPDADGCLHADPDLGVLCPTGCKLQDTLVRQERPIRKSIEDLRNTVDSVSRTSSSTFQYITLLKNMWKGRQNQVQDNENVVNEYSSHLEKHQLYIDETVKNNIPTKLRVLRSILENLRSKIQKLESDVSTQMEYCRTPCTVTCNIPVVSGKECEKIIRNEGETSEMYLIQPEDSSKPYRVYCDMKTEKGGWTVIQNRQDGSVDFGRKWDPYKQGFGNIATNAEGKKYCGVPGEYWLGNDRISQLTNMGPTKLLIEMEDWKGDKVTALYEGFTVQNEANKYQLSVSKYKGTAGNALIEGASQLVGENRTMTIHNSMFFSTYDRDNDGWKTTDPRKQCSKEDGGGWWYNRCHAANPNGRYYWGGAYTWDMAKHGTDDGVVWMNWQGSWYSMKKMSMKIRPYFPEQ
# T1 sequence (P12799 25-444): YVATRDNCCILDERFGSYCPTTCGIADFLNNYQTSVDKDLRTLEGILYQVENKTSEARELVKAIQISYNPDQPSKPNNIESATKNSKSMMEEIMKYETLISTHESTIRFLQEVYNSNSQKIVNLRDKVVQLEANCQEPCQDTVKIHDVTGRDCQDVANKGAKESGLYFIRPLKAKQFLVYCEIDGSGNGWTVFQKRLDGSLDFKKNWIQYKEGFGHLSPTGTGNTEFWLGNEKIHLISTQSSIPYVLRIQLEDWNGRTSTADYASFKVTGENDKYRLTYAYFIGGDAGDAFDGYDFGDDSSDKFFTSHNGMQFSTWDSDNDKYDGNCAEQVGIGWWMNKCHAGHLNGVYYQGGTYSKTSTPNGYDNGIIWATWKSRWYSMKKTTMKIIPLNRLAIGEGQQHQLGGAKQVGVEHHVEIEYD
# lysozyme = lysozyme (Gallus gallus, UniProt P00698); test: SPR adsorption of lysozyme to SAMs / grafted polymer films; assay type: binding; details: for % Lysoff (percent decrease in adsorbed protein during 10 minute PBS wash) / dR/dton lysozyme (maximum initial rate of adsorption) / % MLlys 3 min / % MLlys 30 min: mixed SAM —CONRR′/—CO2H; for % MLlys 3 min: 1 mg/mL lysozyme flowed 3 min; for % MLlys 30 min: 1 mg/mL lysozyme flowed 30 min; for % ML 3 min / dR/dt on: lysozyme
# Chain of lysozyme (P00698 19-147): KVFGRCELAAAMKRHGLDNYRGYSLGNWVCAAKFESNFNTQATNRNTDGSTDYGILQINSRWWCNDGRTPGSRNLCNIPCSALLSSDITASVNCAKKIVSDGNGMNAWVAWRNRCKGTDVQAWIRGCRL
# [1] = Contact angle of deionized water under cyclooctane; assay type: physicochemical
# [2] = footnote b (30 minutes), single-component SAMs (a) and mixed SAMs (b)
# [3] = single-component SAMs (a) and mixed SAMs (b)
Molecule,% Fiboff (percent decrease in adsorbed protein during 10 minute PBS wash) (fibrinogen) [%],dR/dton fibrinogen (maximum initial rate of adsorption) (fibrinogen) [RU/sec],% MLfib 3 min (fibrinogen) [%],% MLfib 30 min (fibrinogen) [%],% Lysoff (percent decrease in adsorbed protein during 10 minute PBS wash) (lysozyme) [%],dR/dton lysozyme (maximum initial rate of adsorption) (lysozyme) [RU/sec],% MLlys 3 min (lysozyme) [%],% MLlys 30 min (lysozyme) [%],θco sessile ([1]; mixed SAM) [degrees],% ML 30 min (fibrinogen) [%],dR/dt on (fibrinogen) [RU/sec],% ML 3 min (fibrinogen) [%],% Fib off (fibrinogen) [%],% ML 3 min (lysozyme; [2]) [%],% ML 3 min (lysozyme; [3]) [%],dR/dt on (lysozyme; [3]) [RU/sec],θco sessile [1] [degrees],% Lys off (lysozyme; [3]) [%]
CN1CCNCC1,1.0 ± 0.2,50 ± 30,8.2 ± 1,16 ± 0.2,170 ± 20,60 ± 40,1.1 ± 0.2,1.0 ± 0.4,49,–,–,–,–,–,–,–,–,–
CNCCN(C)C(=O)OC,20 ± 2,330 ± 70,26 ± 0.2,58 ± 0.3,150 ± 2,670 ± 50,4.3 ± 0.2,43 ± 3,70,–,–,–,–,–,–,–,–,–
CNCCN(C)C(=O)N(C)C,15 ± 2,60 ± 30,5.9 ± 0.2,25 ± 1,160 ± 10,670 ± 50,2.1 ± 0.2,11 ± 0.5,62,–,–,–,–,–,–,–,–,–
O=CN1CCNCC1,10 ± 2,200 ± 50,23 ± 1,39 ± 1,73 ± 15,160 ± 50,8 ± 0.3,12 ± 0.3,38,–,–,–,–,–,–,–,–,–
CNCCN(C)C(C)=O,15 ± 1,40 ± 10,2.1 ± 0.3,12 ± 3,330 ± 15,170 ± 30,0.5 ± 0.2,3.8 ± 2,46,–,–,–,–,–,–,–,–,–
"NCCOCCOCCO [Entry 3b, H(OCH2CH2)3NH2, reference compound]",–,–,–,–,–,–,–,–,–,2,30,1,11,1,1,85,50,–
CNCCN(C)P(=O)(N(C)C)N(C)C,19 ± 1,120 ± 20,0.8 ± 0.1,4.3 ± 0.6,660 ± 15,70 ± 30,0.2 ± 0.2,0.3 ± 0.2,63,–,–,–,–,–,–,–,–,–
CC(=O)N1CCNCC1,12 ± 2,120 ± 70,17 ± 1,38 ± 0.2,400 ± 5,440 ± 80,7.8 ± 1,6.5 ± 0.2,45,38 ±0.2,120 ±70,17 ±1,12 ±2,7 ±0.2,8 ±1,440 ±80,45,400 ±5
NC(CCCO)(CCCO)CCCO [H2NC(CH2CH2CH2OH)3],14 ± 0.5,350 ± 220,34 ± 2.2,57 ± 0.2,140 ± 2,1400 ± 110,30 ± 0.6,73 ± 5,70,–,–,–,–,–,–,–,–,–
CC(=O)CCN,16 ± 1,1400 ± 260,66 ± 0.3,74 ± 0.3,150 ± 10,2700 ± 400,31 ± 6,71 ± 5,70,–,–,–,–,–,–,–,–,–
H(CH3)NCH2CH(OCH3)2,15 ± 4,510 ± 400,16 ± 2,36 ± 1,190 ± 2,740 ± 300,4.6 ± 2,19 ± 5,70,–,–,–,–,–,–,–,–,–
CNCCN(C)C,13 ± 2,140 ± 40,23 ± 4,40 ± 2,300 ± 30,400 ± 200,1.9 ± 0.1,14 ± 2,49,–,–,–,–,–,–,–,–,–
